Results reported in patent US10508104B2, “6-hydroxy-5-(phenyl/heteroarylsulfonyl)pyrimidin-4(1H)-one as APJ agonists” (Bristol-Myers Squibb Company, priority 2016, dated 2019).
Like-named read-outs stand apart in the source and are kept apart here.

Target: human APJ receptor (Homo sapiens (Human), UniProt P35414)
Experiment: Intracellular cAMP accumulation assay (APJ hcAMP, HTRF)
Format: cell-based
Conditions: read-out: Human APJ cAMP EC50 Potency range
Description: Intracellular cAMP Accumulation Assay
HEK293 cells stably expressing human APJ receptor were used to assess the activity of compounds. Cultured cells were detached and resuspended in the cAMP Homogeneous Time-Resolved Fluorescence (HTRF) assay buffer (Cisbio cat; #62AM4PEJ). The assay was performed in 384-well assay plates (Perkin-Elmer; cat #6008289) according to assay protocol provided by the manufacturer. Serial dilutions of a compound together with assay buffer containing […] and 2 μM forskolin were added to each well containing 5,000 cells and incubated for 30 minutes at room temperature. Subsequently, cAMP D2 reagent was added in the lysis buffer followed by the EuK antibody (Cisbio; cat #62AM4PEJ) and incubated for 60 min. The fluorescence emission ratio was measured using fluorometer. The intracellular cAMP concentrations (compound-stimulated inhibition of forskolin-mediated cAMP production) were calculated by extrapolation from a standard curve using known cAMP concentrations. The EC50 values were obtained by fitting the data to a sigmoidal concentration-response curve with variable slope.
The EC50 value of each compound is presented at the end of the example description.
The biological activity of the exemplified compounds of this invention determined by the assay described above is shown at the end of each example.

[1] = human APJ, intracellular cAMP accumulation
[2] = HEK293 cells stably expressing human APJ receptor, inhibition of forskolin-mediated cAMP production

Chain of human APJ receptor (P35414 whole entry): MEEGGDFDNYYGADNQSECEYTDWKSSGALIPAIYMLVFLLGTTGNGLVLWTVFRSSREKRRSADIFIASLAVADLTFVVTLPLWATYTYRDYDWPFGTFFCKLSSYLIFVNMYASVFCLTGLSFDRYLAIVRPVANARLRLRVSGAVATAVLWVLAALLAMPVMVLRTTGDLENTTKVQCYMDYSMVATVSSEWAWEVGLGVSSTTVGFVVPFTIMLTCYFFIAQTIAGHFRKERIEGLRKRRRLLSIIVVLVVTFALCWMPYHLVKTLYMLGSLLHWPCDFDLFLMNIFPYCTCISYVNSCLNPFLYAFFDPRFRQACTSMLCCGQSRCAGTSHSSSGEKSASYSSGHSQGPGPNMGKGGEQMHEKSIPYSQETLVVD

Compound | EC50 [1] [nM] | EC50 (human APJ, cAMP accumulation) [nM] | further results
5-(4- bromobenzenesulfonyl)- 2-butyl-3- [cyclopropyl(phenyl) methyl]-6-hydroxy-3,4- dihydropyrimidin-4-one [Example 186] | 10 to 100 |  | 
5-(4- bromobenzenesulfonyl)- 2-butyl-3-[(1S)-1-(3- chlorophenyl)propyl]-6- hydroxy-3,4- dihydropyrimidin-4-one [Example 188] | 10 to 100 |  | 
COC[C@@H](c1ccccc1)n1c(C2CCCO2)nc(=O)c(S(=O)(=O)c2ccc(-c3ccnc(F)c3C)cc2)c1O (mixture of isomers) [Example 353, 5-[4-(2-fluoro-3-methylpyridin-4-yl)benzenesulfonyl]-6-hydroxy-1-[(1R)-2-methoxy-1-phenylethyl]-2-(oxolan-2-yl)-1,4-dihydropyrimidin-4-one] |  | 0.01 to 10 | 
COC[C@@H](c1ccccc1)n1c(C2CCCO2)nc(=O)c(S(=O)(=O)c2ccc(-c3ccc(F)nc3)cc2)c1O (mixture of isomers) [Example 354, 5-[4-(6-fluoropyridin-3-yl)benzenesulfonyl]-6-hydroxy-1-[(1R)-2-methoxy-1-phenylethyl]-2-(oxolan-2-yl)-1,4-dihydropyrimidin-4-one] |  | 0.01 to 10 | 
COC[C@@H](c1ccccc1)n1c(C2CCCO2)nc(=O)c(S(=O)(=O)c2ccc(-c3ccc(F)nc3C)cc2)c1O (mixture of isomers) [Example 355, 5-[4-(6-fluoro-2-methylpyridin-3-yl)benzenesulfonyl]-6-hydroxy-1-[(1R)-2-methoxy-1-phenylethyl]-2-(oxolan-2-yl)-1,4-dihydropyrimidin-4-one] |  | 0.01 to 10 | 
COC[C@@H](c1ccccc1)n1c(C2CCCO2)nc(=O)c(S(=O)(=O)c2ccc(-c3ccncc3C)cc2)c1O (single isomer, unassigned) [Example 350] |  | 0.01 to 10 | 
COC[C@@H](c1ccccc1)n1c(C2CCCO2)nc(=O)c(S(=O)(=O)c2ccc(-c3ccncc3C)cc2)c1O (single isomer, unassigned) [Example 351] |  | 0.01 to 10 | 
COC[C@@H](c1ccccc1)n1c(C2CCCO2)nc(=O)c(S(=O)(=O)c2ccc(-c3ccncc3C)cc2)c1O (single isomer, unassigned) [Example 352] |  | 0.01 to 10 | 
COC[C@@H](c1ccccc1)n1c(C2CCCO2)nc(=O)c(S(=O)(=O)c2ccc(-c3ccc(F)nc3C)cc2)c1O (single isomer, unassigned) [Example 356] |  | 0.01 to 10 | 
COC[C@@H](c1ccccc1)n1c(C2CCCO2)nc(=O)c(S(=O)(=O)c2ccc(-c3ccc(F)nc3C)cc2)c1O (single isomer, unassigned) [Example 357] |  | 0.01 to 10 | 
COC[C@@H](c1ccccc1)n1c(C2CCCO2)nc(=O)c(S(=O)(=O)c2ccc(-c3ccc(F)nc3)cc2)c1O (single isomer, unassigned) [Example 358] |  | 0.01 to 10 | 
COC[C@@H](c1ccccc1)n1c(C2CCCO2)nc(=O)c(S(=O)(=O)c2ccc(-c3ccc(F)nc3)cc2)c1O (single isomer, unassigned) [Example 359] |  | 0.01 to 10 | 
CCCCc1nc(=O)c(S(=O)(=O)c2ccc(Br)cc2)c(O)n1-c1c(OC)cccc1OC [Example 1, 5-((4-Bromophenyl)sulfonyl)-2-butyl-1-(2,6-dimethoxyphenyl)-6-hydroxypyrimidin-4(1H)-one] |  |  | EC50 [2]: 0.01 to 10 nM
CCCCc1nc(=O)c(S(=O)(=O)c2ccccc2)c(O)n1-c1c(OC)cccc1OC [Example 2, 5-(benzenesulfonyl)-2-butyl-1-(2,6-dimethoxyphenyl)-6-hydroxy-1,4-dihydropyrimidin-4-one] | 0.01 to 10 |  | 
CCCCc1nc(=O)c(S(=O)(=O)c2ccc(Cl)cc2)c(O)n1-c1c(OC)cccc1OC [Example 3, 2-butyl-5-(4-chlorobenzenesulfonyl)-1-(2,6-dimethoxyphenyl)-6-hydroxy-1,4-dihydropyrimidin-4-one] | 0.01 to 10 |  | 
CCCCc1nc(=O)c(S(=O)(=O)c2ccc(F)cc2)c(O)n1-c1c(OC)cccc1OC [Example 4, 2-butyl-1-(2,6-dimethoxyphenyl)-5-(4-fluorobenzenesulfonyl)-6-hydroxy-1,4-dihydropyrimidin-4-one] | 0.01 to 10 |  | 
CCCCc1nc(=O)c(S(=O)(=O)Cc2ccccc2)c(O)n1-c1c(OC)cccc1OC [Example 5, 2-butyl-1-(2,6-dimethoxyphenyl)-6-hydroxy-5-phenylmethanesulfonyl-1,4-dihydropyrimidin-4-one] | 10 to 100 |  | 
CCCCc1nc(=O)c(S(=O)(=O)c2ccc(C(F)(F)F)cn2)c(O)n1-c1c(OC)cccc1OC [Example 6, 2-butyl-1-(2,6-dimethoxyphenyl)-6-hydroxy-5-{[5-(trifluoromethyl)pyridin-2-yl]sulfonyl}-1,4-dihydropyrimidin-4-one] | 0.01 to 10 |  | 
CCCCc1nc(=O)c(S(=O)(=O)c2ccc(-c3ccc(F)cc3)cc2)c(O)n1-c1c(OC)cccc1OC [Example 7, 2-Butyl-1-(2,6-dimethoxyphenyl)-5-((4′-fluoro-[1,1′-biphenyl]-4-yl)sulfonyl)-6-hydroxypyrimidin-4(1H)-one] |  |  | EC50 [2]: 0.01 to 10 nM
CCCCc1nc(=O)c(S(=O)(=O)c2ccc(-c3ccccc3)cc2)c(O)n1-c1c(OC)cccc1OC [Example 8, 2-butyl-1-(2,6-dimethoxyphenyl)-6-hydroxy-5-(4-phenylbenzenesulfonyl)-1,4-dihydropyrimidin-4-one] | 0.01 to 10 |  | 
CCCCc1nc(=O)c(S(=O)(=O)c2ccc(-c3cn(C)nc3C(F)(F)F)cc2)c(O)n1-c1c(OC)cccc1OC [Example 9, 2-butyl-1-(2,6-dimethoxyphenyl)-6-hydroxy-5-{4-[1-methyl-3-(trifluoromethyl)-1H-pyrazol-4-yl]benzenesulfonyl}-1,4-dihydropyrimidin-4-one] | 0.01 to 10 |  | 
CCCCc1nc(=O)c(S(=O)(=O)c2ccc(-c3cnn(C(C)C)c3)cc2)c(O)n1-c1c(OC)cccc1OC [Example 10, 2-butyl-1-(2,6-dimethoxyphenyl)-6-hydroxy-5-{4-[1-(propan-2-yl)-1H-pyrazol-4-yl]benzenesulfonyl}-1,4-dihydropyrimidin-4-one] | 0.01 to 10 |  | 
COc1cccc(OC)c1-n1c(CCC(C)C)nc(=O)c(S(=O)(=O)c2ccc(-c3ccccc3)cc2)c1O [Example 11, 1-(2,6-dimethoxyphenyl)-6-hydroxy-2-(3-methylbutyl)-5-(4-phenylbenzenesulfonyl)-1,4-dihydropyrimidin-4-one] | 0.01 to 10 |  | 
COc1cccc(OC)c1-n1c(CCC(C)C)nc(=O)c(S(=O)(=O)c2ccc(-c3ccc(F)cc3)cc2)c1O [Example 12, 1-(2,6-dimethoxyphenyl)-5-[4-(4-fluorophenyl)benzene-sulfonyl]-6-hydroxy-2-(3-methylbutyl)-1,4-dihydropyrimidin-4-one] | 0.01 to 10 |  | 
COc1cccc(OC)c1-n1c(CCC(C)C)nc(=O)c(S(=O)(=O)c2ccc(-c3ccc(Cl)cc3)cc2)c1O [Example 14, 5-[4-(4-chlorophenyl)benzene-sulfonyl]-1-(2,6-dimethoxyphenyl)-6-hydroxy-2-(3-methylbutyl)-1,4-dihydropyrimidin-4-one] | 0.01 to 10 |  | 
CCCCc1nc(=O)c(S(=O)(=O)c2ccc(-c3ccc(F)nc3)cc2)c(O)n1-c1c(OC)cccc1OC [Example 15, 2-butyl-1-(2,6-dimethoxyphenyl)-5-[4-(6-fluoropyridin-3-yl)benzenesulfonyl]-6-hydroxy-1,4-dihydropyrimidin-4-one] | 0.01 to 10 |  | 
